{"source": "paper PMC6108835", "about": "“Target-Based Discovery of an Inhibitor of the Regulatory Phosphatase PPP1R15B” (Cell, 2018)", "key": {"[1]": {"test_system": "HeLa cells", "test": "Monitoring cell viability (CellTox Green, IncuCyte)", "format": "cell-based", "description": "HeLa cells (40,000 cells/mL) were plated in 96-well plates (0.1 mL/well). The following day the cells were treated with different concentrations of Raphin1, in triplicate, as indicated and incubated at 37°C for 48 hr. To monitor cell death 1:2,000 dilution of the CellTox Green Dye (Promega) was added to the medium. The growth of the cells was monitored over time and pictures taken every 2 hr (two per well) with the IncuCyte ZOOM system (Essen BioScience). The default software parameters for a 96-well plate (Corning) with a 10x objective were used for imaging and the images were analyzed by the IncuCyte ZOOM software (Essen BioScience). The software was used to calculate the confluency from the two non-overlapping images of each well at each time point. The phase confluency refers to the percentage of the image area that is occupied by cells. The green confluency refers to the percentage of the image area that fluoresces green. The CellTox Green Dye (Promega) preferentially stains dead cells’ DNA, but is excluded from viable cells. To assess the effect of Raphin1 on cell viability, the percentage of dead cells was calculated as follows: %ofdeadcells=Greenconfluency(%)atXhours/Phaseconfluency(%)atXhours×100"}, "[2]": {"test_system": "HeLa cells", "test": "Assessment of translation rates (35S-methionine), HeLa cells", "format": "cell-based, human", "conditions": "HeLa cells", "description": "HeLa or MEF cells (90,000 cells/mL) were plated in 12-well plates (1 mL/well). The following day cells were treated as indicated; the medium was removed, fresh medium containing compound added and incubated at 37°C for the times indicated. The time course was performed in reverse order to facilitate labeling all samples at the same time. After the treatment the cells were labeled with 100 μCi/mL ^35S-methionine (Hartmann Analytic) for 10 min at 37°C (300 μL fresh medium containing 3 μL ^35S-methionine was added to each well). Note that cells were not starved in methionine-free media before labeling with ^35S-methionine for monitoring protein synthesis. The labeled cells were then washed twice with ice-cold PBS and lysed in 120 μL Laemmli Buffer. Lysates were transferred to 1.5 mL eppendorf tubes, boiled at 95°C for 5 min, sonicated and resolved on Bolt SDS-PAGE 4%–12% Bis-Tris gels (ThermoFisher Scientific). Gels were then stained with InstantBlue (Expedeon) and after the gels had been imaged they were transferred to a 20% ethanol, 7% acetic acid, 4% glycerol solution for 10 min. This was to prevent the gels from cracking while drying. The gels were transferred to filter paper and dried using a gel dryer. The gels were then exposed to a Storage Phosphor Screen (GE Healthcare) and analyzed by phosphorimaging using a Typhoon Imager Scanner (GE Healthcare)."}, "[3]": {"test_system": "brains of R15a −/− mice", "test": "Monitoring translation rates in vivo, brains of R15a −/− mice", "design": "species or system mouse", "conditions": "40 mg/kg", "description": "3 months old treatment- and test-naive C57BL/6J males were treated as indicated. 30 min before the end of treatment mice were injected intraperitoneally with 0.75 mCi/kg radioactive label – 75% ^35S-methionine + 25% ^35S-cystine (Hartmann Analytic). At the end of treatment mice were culled by cervical dislocation, brains were extracted, fresh-frozen in liquid nitrogen and kept at −80°C until use. Tissue was homogenized and lysed in Laemmli Buffer (1 mL for 0.5 mg tissue). Lysates were boiled at 95°C for 5 min, sonicated and resolved on Bolt SDS-PAGE 4%–12% Bis-Tris gels (ThermoFisher Scientific). Gels were then stained with InstantBlue (Expedeon) and after the gels had been imaged they were transferred to a 20% ethanol, 7% acetic acid, 4% glycerol solution for 10 min. This was to prevent the gels from cracking while drying. The gels were transferred to filter paper and dried using a gel dryer. The gels were then exposed to a Storage Phosphor Screen (GE Healthcare) and analyzed by phosphorimaging using a Typhoon Imager Scanner (GE Healthcare)."}, "[4]": {"biological_target": "T1, R15B^340–698 (Homo sapiens, UniProt Q5SWA1)", "T1 construct": "made in house; host or cells: E. coli BL21-Gold (DE3) pLysS", "T1 sequence (Q5SWA1 340-698)": "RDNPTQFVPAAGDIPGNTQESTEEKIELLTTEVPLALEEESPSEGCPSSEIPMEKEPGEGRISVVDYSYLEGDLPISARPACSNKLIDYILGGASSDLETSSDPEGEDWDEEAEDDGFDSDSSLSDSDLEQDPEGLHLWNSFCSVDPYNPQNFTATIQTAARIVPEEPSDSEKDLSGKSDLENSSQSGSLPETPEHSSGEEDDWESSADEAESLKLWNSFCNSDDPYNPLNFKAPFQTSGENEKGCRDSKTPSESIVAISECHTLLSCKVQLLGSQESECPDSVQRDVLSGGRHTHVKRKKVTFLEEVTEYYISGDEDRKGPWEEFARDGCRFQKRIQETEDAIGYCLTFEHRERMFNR", "test": "eIF2α pull down with MBP-tagged R15B", "format": "biochemical", "conditions": "Raphin1 200 μM, P-eIF2α 1 μM", "description": "(§1) Recombinant eIF2α was produced as described in [Ito et al. (2004)] and pull down experiments were carried out as previously described ([Carrara et al., 2017]). Amylose beads (New England BioLabs) were pre-equilibrated with interaction buffer (50 mM Tris pH 7.4, 200 mM NaCl, 0.05% Tween20). 20 μL amylose beads were incubated with purified MBP-tagged R15s (200 nM), P-eIF2α (1 μM) as appropriate, plus 200 μM Raphin1, or DMSO vehicle in a total volume of 200 μL. Input samples (5%) was removed at this step, and added to 4% SDS-Laemmli sample buffer. Beads were incubated for 10 min at 4°C with 20 rpm gentle rotation. The beads were washed 5 × 1 mL with interaction buffer, transferred to a fresh tube and finally resuspended with 50 μL 4% SDS-Laemmli sample buffer. Eluded beads were boiled and then run on 4%–12% NuPAGE Bis-Tris gels (ThermoFisher Scientific). Anti-MBP HRP (New England BioLabs (#E8038); 1:5,000) (to probe for R15s) and anti-eIF2α (AbCam (#ab26197); 1:1,000) antibodies were used for immunoblotting analyses of samples."}, "[5]": {"biological_target": "T2, R15A^325–636 (Homo sapiens, UniProt O75807)", "T2 construct": "made in house; host or cells: E. coli BL21-Gold (DE3) pLysS", "T2 sequence (O75807 325-636, stated change not applied)": "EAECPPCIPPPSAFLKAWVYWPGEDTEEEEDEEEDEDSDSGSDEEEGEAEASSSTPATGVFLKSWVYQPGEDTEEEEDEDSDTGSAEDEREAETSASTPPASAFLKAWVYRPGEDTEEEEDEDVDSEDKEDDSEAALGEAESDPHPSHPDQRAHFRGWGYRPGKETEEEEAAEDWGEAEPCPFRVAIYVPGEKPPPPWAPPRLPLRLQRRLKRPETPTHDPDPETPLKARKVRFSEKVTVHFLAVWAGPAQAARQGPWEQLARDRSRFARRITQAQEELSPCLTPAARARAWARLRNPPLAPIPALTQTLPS", "test": "eIF2α pull down with MBP-tagged R15A", "format": "biochemical", "conditions": "Raphin1 200 μM, P-eIF2α 1 μM", "description": "as §1"}, "[6]": {"biological_target": "T3, R15B-PP1c (Homo sapiens, UniProt Q5SWA1)", "T3 construct": "cDNAs encoding amino acids 325-636 of R15A and 340-698 of R15B were cloned into pMAL-c5x; made in house; host or cells: E. coli (R15 and eIF2α: BL21-Gold (DE3) pLysS; PP1: BL21/pGro7)", "T3 sequence (Q5SWA1 340-698)": "as the sequence (Q5SWA1 340-698) above", "T3 sequence (P62136 7-330 partner limits assumed)": "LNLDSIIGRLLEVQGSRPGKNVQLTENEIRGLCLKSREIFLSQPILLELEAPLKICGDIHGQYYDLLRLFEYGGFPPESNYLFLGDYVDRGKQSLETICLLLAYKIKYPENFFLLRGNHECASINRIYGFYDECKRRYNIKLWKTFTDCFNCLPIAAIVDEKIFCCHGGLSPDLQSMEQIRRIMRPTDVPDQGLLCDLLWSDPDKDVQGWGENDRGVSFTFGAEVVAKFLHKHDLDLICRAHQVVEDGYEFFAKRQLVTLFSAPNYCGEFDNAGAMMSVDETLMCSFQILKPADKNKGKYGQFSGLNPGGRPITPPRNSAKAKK", "test": "Selective holophosphatase activity assay, eIF2α dephosphorylation by R15B-PP1c", "format": "biochemical", "conditions": "Raphin1 100 μM, 30°C, 16 hr", "description": "The assay was performed as previously described ([Carrara et al., 2017]). Dephosphorylation experiments were carried out in dephosphorylation buffer (50 mM Tris pH 7.4, 1.5 mM EGTA pH 8.0, 2 mM MnCl2), and all proteins were diluted to the appropriate concentration in dephosphorylation buffer. PP1c was diluted to 10 nM, R15s were diluted to 50 nM and P-eIF2α was diluted to 1 μM. Proteins were mixed as appropriate, and Raphin1 at 100 μM or DMSO vehicle control were added. Reactions were incubated at 30°C for 16 hr. 4% SDS-Laemmli sample buffer was added to stop the reactions. Samples were loaded on 4%–12% NuPAGE Bis-Tris gels (ThermoFisher Scientific), diluted 1-fold, and analyzed by immunoblotting using anti-Phospho-eIF2α (Ser51) (Cell Signaling (#9721); […]) and total anti-eIF2α (AbCam (#ab26197); 1:1,000) antibodies."}}, "data": [{"molecule": "[H]/N=C(\\N)NN=Cc1cccc(Cl)c1Cl", "note": "[Raphin1, (E)-2-(2,3-dichlorobenzylidene)hydrazine-1-carboximidamide]", "values": [{"measurement": "Toxicity to cells (% of dead cells)", "setting": "[1]; 20 μM", "value": "toxic"}, {"measurement": "Toxicity to cells (% of dead cells)", "setting": "[1]; concentration corresponding to brain level after 2 mg/kg (∼1.5 μM), continuously applied for 48 hr", "value": "not toxic"}, {"measurement": "Protein synthesis (in words)", "setting": "[2]; 20 μM", "value": "persistent inhibition"}, {"measurement": "Raphin1-induced eIF2α phosphorylation and translation attenuation", "setting": "[2]; Raphin1 10 μM in the presence of the R15A inhibitor GBZ 10 μM", "value": "persisted"}, {"measurement": "Protein synthesis (in words)", "setting": "[2]; unstressed, 10 μM", "value": "decreased"}, {"measurement": "Translation recovery in the brains (in words)", "setting": "[3]", "value": "recovery was reduced"}, {"measurement": "Recruitment of eIF2α to R15B", "setting": "[4]", "value": "decreased"}, {"measurement": "Recruitment of eIF2α to R15A", "setting": "[5]", "value": "no such effect"}, {"measurement": "Dephosphorylation of eIF2α by R15B-PP1c", "setting": "[6]", "value": "inhibited"}]}]}
